These results are taken from PubChem BioAssay (NCI).

Some test systems named below: SF-295 CNS; NCI-H522 lung; HT29 colon; CCRF-CEM leukemia; IGROV1 ovarian; SF-268 CNS; K-562 leukemia; SK-MEL-28 melanoma; HOP-62 NSCLC.
Holding throughout (experiment): growth of human tumour cells (NCI), 48 h

Each structure is given as a SMILES string.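 Assay format: 96-well plates, 48-hour exposure. The concentration for 50% growth inhibition is given as GI50. TGI is the concentration that stops growth completely.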

As to `CN(C(=O)C12C3C4C1C1C2C3C41C(N)=O)C(C)(C)C` (centres undefined), the TGI in the test with SF-295 CNS, in the test with NCI-H522 lung, with HT29 colon, in the test on CCRF-CEM leukemia, with IGROV1 ovarian and with SF-268 CNS was above 100 µM each time. Moreover, the TGI with K-562 leukemia and in the test with SK-MEL-28 melanoma was above 100 µM in each case.
`COc1c(O)c2c3c(cc(C)cc3c1C(C)C)OC2`: the TGI with SF-295 CNS, in the test on NCI-H522 lung, with HT29 colon, with CCRF-CEM leukemia, with IGROV1 ovarian and with SF-268 CNS was above 100 µM throughout. In addition, the TGI in the test with K-562 leukemia and in the test with SK-MEL-28 melanoma was above 100 µM each time.
Consider `CCCCCCC[CH2][Sn]([CH2]CCCCCCC)([O]c1cccc2cccnc12)[O]c1cccc2cccnc12`, for which the GI50 in the test on SF-295 CNS was 2.38 µM; with NCI-H522 lung it was 0.605 µM; in the test with HT29 colon, 2.04 µM; in the test with CCRF-CEM leukemia, 0.506 µM; in the test with HOP-62 NSCLC it was 2.11 µM; with IGROV1 ovarian it was 2.19 µM. Besides, the GI50 in the test on SF-268 CNS is 2.68 µM; with K-562 leukemia it was 0.586 µM. The TGI is 6.08 µM in the test on SF-295 CNS; 3.86 µM with NCI-H522 lung; 3.94 µM in the test with HT29 colon; 3.25 µM in the test on CCRF-CEM leukemia; 3.67 µM in the test with HOP-62 NSCLC; 5.26 µM in the test on IGROV1 ovarian. For the same compound, the TGI turned out to be 10.7 µM in the test with SF-268 CNS and 3.86 µM in the test with K-562 leukemia.
Turning to `O=C1CCCCC1S(=O)(=O)c1ccccc1` (centres undefined), the TGI in the test with SF-295 CNS, with NCI-H522 lung, in the test with HT29 colon, with CCRF-CEM leukemia, in the test on HOP-62 NSCLC and in the test with IGROV1 ovarian was above 100 µM throughout. Also, the TGI with SF-268 CNS, in the test with K-562 leukemia and with SK-MEL-28 melanoma was above 100 µM throughout.
Turning to `C=Cc1cncc(C#N)c1CCc1c(C#N)cncc1C=C`, the GI50 in the test on SF-295 CNS, in the test with NCI-H522 lung, with HT29 colon, with CCRF-CEM leukemia, with HOP-62 NSCLC and in the test with IGROV1 ovarian was above 100 µM each time. The GI50 in the test with K-562 leukemia was above 100 µM. Moreover, the TGI in the test with SF-295 CNS, with NCI-H522 lung, with HT29 colon, in the test on CCRF-CEM leukemia, in the test on HOP-62 NSCLC and in the test on IGROV1 ovarian was above 100 µM in each case. The values for the TGI with SF-268 CNS, in the test on K-562 leukemia and in the test on SK-MEL-28 melanoma were above 10 µM, above 100 µM and above 10 µM, respectively.
As for `c1cncc(C2N3CCCCC3[C@@H]3c4[nH]c5ccccc5c4CCN23)c1` (some centres undefined), the TGI in the test with SF-295 CNS, in the test with HT29 colon, in the test on CCRF-CEM leukemia, in the test on HOP-62 NSCLC, in the test on IGROV1 ovarian and in the test with SF-268 CNS was above 100 µM each time. For the same compound, the TGI with K-562 leukemia and in the test on SK-MEL-28 melanoma was above 100 µM throughout.
Regarding `COc1cc2ccnc3c2c(c1OC)-c1coc(SC)c1-3`, the TGI in the test on SF-295 CNS, in the test on NCI-H522 lung, in the test with HT29 colon, with HOP-62 NSCLC, in the test with IGROV1 ovarian and in the test with SF-268 CNS was above 100 µM throughout. This compound also yielded a TGI in the test with K-562 leukemia above 100 µM.
On to `C=C/C=C/NC(=O)OCc1ccccc1`, for which the TGI with SF-295 CNS, in the test with NCI-H522 lung, in the test on HT29 colon, in the test on CCRF-CEM leukemia, in the test with HOP-62 NSCLC and in the test with IGROV1 ovarian was above 100 µM throughout. The TGI in the test with SF-268 CNS, with K-562 leukemia and in the test on SK-MEL-28 melanoma was above 100 µM each time.
On to `CC(=O)Nc1ccc(S(=O)(=O)N/N=C/CN2C(=O)c3ccccc3C2=O)cc1`, for which the TGI in the test on SF-295 CNS, in the test with NCI-H522 lung, with HT29 colon, with CCRF-CEM leukemia, in the test on HOP-62 NSCLC and with IGROV1 ovarian was above 100 µM each time. The TGI in the test on SF-268 CNS and in the test with K-562 leukemia was above 100 µM throughout.
For `OC(CCNC12CC3CC(CC(C3)C1)C2)c1ccccc1` (centres undefined), the TGI with SF-295 CNS, in the test on NCI-H522 lung, with HT29 colon, in the test with CCRF-CEM leukemia, in the test on HOP-62 NSCLC and in the test with IGROV1 ovarian was above 100 µM each time. The TGI in the test on SF-268 CNS and with SK-MEL-28 melanoma was above 100 µM throughout.
Regarding `CCOC(C[C@H](O[Si](C)(C)C(C)(C)C)[C@H]1COC(=S)S1)OCC`, the TGI in the test on SF-295 CNS is above 100 µM; in the test with NCI-H522 lung, 55.6 µM; in the test on HT29 colon it was 41.9 µM; in the test with CCRF-CEM leukemia, above 100 µM; with HOP-62 NSCLC, above 100 µM; with SF-268 CNS, above 100 µM. Also, the TGI with K-562 leukemia and in the test on SK-MEL-28 melanoma was above 100 µM in each case.
For `C=C1CC2OC(=O)C(=C)C2C(O)C2C(=C)CCC12` (centres undefined), the TGI in the test on SF-295 CNS is 22.8 µM; in the test with HT29 colon, 15.1 µM; in the test on CCRF-CEM leukemia it was 10.2 µM; in the test with IGROV1 ovarian it was 35.5 µM; with SF-268 CNS, 32.3 µM; in the test with K-562 leukemia it was 30.5 µM. Besides, in the test on SK-MEL-28 melanoma, the TGI stood at 21 µM.
In the case of `CCOC(=O)CC[C@H](NC(=O)c1nc[nH]c1[N+](=O)[O-])C(=O)OCC`, the TGI in the test on SF-295 CNS, in the test on NCI-H522 lung, in the test on CCRF-CEM leukemia, in the test on HOP-62 NSCLC, in the test on IGROV1 ovarian and in the test with SF-268 CNS was above 100 µM in each case. Also, the TGI in the test on K-562 leukemia and in the test on SK-MEL-28 melanoma was above 100 µM throughout.
Take `O=C(O)CC[C@H](NC(=O)c1ccc(-n2nc3ccc(O)cc3nc2=O)cc1)C(=O)O`: the TGI in the test on SF-295 CNS, with NCI-H522 lung, in the test on HT29 colon, in the test with CCRF-CEM leukemia, with HOP-62 NSCLC and in the test with IGROV1 ovarian was above 100 µM in each case. In addition, the TGI in the test on SF-268 CNS, in the test with K-562 leukemia and with SK-MEL-28 melanoma was above 100 µM in each case.
